Experimental findings from patent publication US20260337125A1, “RADIOLABELED TYROSINE DERIVATIVE AND APPLICATION THEREOF” (Osaka University, priority 2022, published 2026) are described below.

Data set [1] can be described thus: Measurement of accumulated amounts of 211At-labeled compounds in PANC1 tumor-bearing mice. The format is in vivo, human (PANC1) in Balb/c-nu/nu mice. The following applies: tumor, iv, 0.1 MBq/animal, 0.1 MBq/0.2 mL per mouse, tail vein, read-out: tumor accumulation. The protocol:
(§1) Radiation doses before and after the administration were measured, and a difference between them was defined as an injected dose (ID). Ten minutes and one hour after administration, the mice were anesthetized by isoflurane inhalation, the tumors were isolated by autopsy in chronological order, and their radiation doses and weights were measured using a gamma counter (2480 Wizard^2, PerkinElmer) and a semimicro scale (Shimadzu Corporation, readability 10 μg), respectively. For comparison between accumulated amounts, accumulated amounts per unit amount (% ID/g) were calculated.
(§2) In Table 1, the amounts of the ^211At-labeled compounds accumulated in tumors of the PANC1 tumor-bearing models (% ID/g) are shown. It should be noted that in Table 1, “OMe” is ^211At-AAMT-OMe, “OEt” is ^211At-AAMT-OEt, “OPr” is ^211At-AAMT-OPr, and “OH” is ^211At-AAMT.

In another data set the test system is PANC1 tumor. Described as above. The format is in vivo, human (PANC1) in Balb/c-nu/nu mice. The protocol: as §1, §2
In a further data set the test system is A549. Put plainly: Therapeutic test on mice subcutaneously transplanted with A549. As to conditions: A549 tumor weight 30 days after administration, 0.5 MBq/0.2 mL per mouse, tail vein. The format is in vivo, human (A549) in Balb/c-nu/nu mice.
Data set [2] relates to Gem-resistant PANC1 (PANC1 Gem-r). As to conditions: in vivo. The protocol:
(§3) Thirty days after administration, the mice were euthanized and tumor masses were isolated. After fat tissue and the like were trimmed off, the wet weights of the isolated tumor masses were measured to make a histogram.

In data set [3] the test system is CDDP-resistant A549 (A549 CDDP-r). As to conditions: A549 CDDP-r tumor weight 30 days after administration, 0.5 MBq/0.2 mL per mouse, tail vein. The protocol:
as §3

The subject of the next data set is PANC1. Put plainly: Cellular uptake test (Using PANC1). The data set is classed as cell-based, human. Here is the method: • Cells to be used: PANC1 • Culture medium to be used: D-MEM (containing 10% FBS, 1% P/S)
Two days before a test day, a cell suspension was prepared in such a manner that the concentration of predetermined cells was 1×10^5 cells/mL in the same manner as in Test Example 1. The cell suspension was seeded in a 24-well multiculture plate at a volume of 0.5 mL per well. On the day of the test, cultures were confirmed to be subconfluent (which refers to a state where 70-80% of the well is covered in density). The cells were washed twice with warmed PBS(-) Buffer (166-23555, FUJIFILM Wako Pure Chemical Corporation), the culture medium was replaced with HBSS(-) Buffer (085-09355, FUJIFILM Wako Pure Chemical Corporation), and the plate was left to stand in an incubator (MINIcell-35, WakenBtech Co., Ltd) until an RI addition test.
^211At-AAMT-OMe, ^211At-AAMT-OEt, ^211At-AAMT-OPr, or ^211At-AAMT was added to the prepared cells at 10 μL/well. BCH (LAT1 inhibitor, 20 mM) or unlabeled AMT (α-methyl tyrosine, 1 μg/mL) was previously (15 minutes before) added ([…]). The cells were cultured (CO2 5%, 37 °C), and after 30 minutes, the liquid was removed by suction using an aspirator. The cells were washed twice with PBS(-). The cells were lysed by adding 0.1N NaOH to obtain a lysate, and the radioactivity of the lysate was measured using a γ counter. After the radioactivity measurement, the lysate was loaded into a 96-well plate at a volume of 10 μL per well, the protein amount was measured by the BCA method, and the number of cells was corrected based on the protein amount. Absorbance was measured by MultiScanFC (Thermo Fisher). The uptake level of ^211At-AAMT-OMe, ^211At-AAMT-OEt, ^211-At-AAMT-OPr, or ^211At-AAMT into the cells (number of radioactivity counts/protein amount) was calculated.

Data set [4] has as its system human pancreatic cancer cell line (PANC1). The format is in vivo, human (PANC1) in Balb/c-nu/nu mice. The following applies: 1 MBq/0.2 mL per mouse, tail vein. The source says: The experiment was terminated 21 days after administration.
Data set [5] has the same test system. Put plainly: Imaging of mice subcutaneously transplanted with human pancreatic cancer cell line PANC1. The following applies: 2 hours after administration, 0.5 MBq/0.2 mL per mouse, tail vein. The format is in vivo, human (PANC1) in Balb/c-nu/nu mice.
Excerpt: Immunodeficient mice (Balb/c-nu/nu, 5-week-old, male) were habituated for 1 week and then subcutaneously transplanted with a human pancreatic cancer cell line (PANC1, 1×10^7 cells/mouse). After the transplantation, the mice were observed over time until tumor reached a size large enough for imaging (about 1000 mm^3). […] Two hours after administration, the mice were anesthetized by isoflurane inhalation, and planar images were taken using a γ camera (E-cam, Siemens).
Data set [6] deals with CDDP-resistant A549 (A549 CDDP-r). As to conditions: 48 hours, 37 °C, Cell counting kit-8. The protocol: Two days before experiment, A549 and CDDP-resistant A549 (A549 CDDP-r) were each seeded in a 96-well plate at a concentration of 1×10^5 cells/mL. ^211At-AAMT-OMe or ^211At-AAMT adjusted to a predetermined concentration was added to A549 cells and CDDP-resistant A549 cells, respectively, and the cells were cultured (CO2 5%, 37 °C). After the cultivation for 48 hours, Cell counting kit-8 (DOJINDO LABORATORIES) was added. After the addition, the cells were cultured at 37 °C for 1 hour, and cell viability was measured using absorbance at 450 nm as an indicator.
In general terms: Tetrazolium dyes change colour on reduction, which living cells bring about.

Data set [7] relates to human pancreatic cancer cell line (PANC1). Put plainly: Therapeutic test on PANC1 subcutaneously transplanted mice (28 days). The data set is classed as in vivo, human (PANC1) in Balb/c-nu/nu mice. The following applies: 1 MBq/0.2 mL per mouse, tail vein. The source says:
Twenty-eight days after administration, the mice were euthanized and subjected to autopsy, and tumor masses were isolated after organs were examined for abnormalities.

Structures are written as SMILES. Read-outs that look alike come from different tables or passages of the source.

For `COc1ccc(C[C@](C)(N)C(=O)O)cc1[At]` [^211At-AAMT-OMe, (S)-3-astato(^211At)-O-methyl-α-methyltyrosine], the tissue uptake at 10 min in [1] (10 minutes after administration) came to 2.59 %ID/g. Further, the tissue uptake at 1 h in data set [1] (1 hour after administration) was 3.78 %ID/g. In addition, the “accumulation in the tumor sites compared to 211At-AAMT” value in the data set with PANC1 tumor (10 minutes and 1 hour after administration, tail vein) is recorded as “more highly accumulated in the tumor sites than ^211At-AAMT”. Besides, in the data set on PANC1 tumor (compared to 211At-AAMT), the “retention at tumor sites” value is given as “superior retention at tumor sites compared to ^211At-AAMT”. The anti-tumor effect result with A549 is given as “comparable to that of ^211At-AAMT on A549”; in [2], “higher on Gem-resistant PANC1 (PANC1 Gem-r) than on PANC1”; in data set [3], “higher than that of ^211At-AAMT on CDDP-resistant A549”; in data set [7] (28 days after administration) it was “slightly higher than that of ^211At-AAMT”. The “tumor growth inhibiting effect” value in data set [2] is “higher tumor growth inhibiting effect on the gemcitabine-resistant PANC1 cells”. Further, the “uptake level into cells (number of radioactivity counts/protein amount)” value with PANC1 was “much superior in uptake level to ^211At-AAMT”. Also, the uptake speed result with PANC1 (PANC1 cells, uptake level immediately after addition) is “much superior also in uptake speed”. Besides, the apparent toxicity result in data set [4] (21 days) is given as “apparent toxicity induced by their administration was not observed”. For the same compound, in data set [4] (21 days), the “lesions other than tumor at autopsy” value is “lesions other than tumor were not observed”. The mouse body weight result was “gently increased” in [4] (up to 21 days after administration); “tends to slightly reduce, but the body weight reduction is significantly smaller than that of the control group, and is therefore not at a level regarded as a side effect” in data set [7] (up to 28 days after administration). For the same compound, in data set [5], the “accumulation in tumor site (planar γ camera image)” value is on record as “accumulated in the tumor sites, with a larger amount of ^211At-AAMT-OMe remaining in the tumor”. In data set [6], the cytotoxicity result is reported as “more remarkable cytotoxicity against A549 CDDP-r”. For the same compound, the tumor size entry in data set [7] (28 days after administration) is “slightly smaller than that of the ^211At-AAMT administration group”.
